Results published in article PMC11091702, “CD38 restrains the activity of extracellular cGAMP in a model of multiple myeloma” (iScience, 2024).
Read-outs that look alike come from different tables or passages of the source.

What was measured:
[1] = tested on: T1, NC(=O)c1ccc[n+]([C@@H]2O[C@H](COP(=O)([O-])OP(=O)(O)OC[C@H]3O[C@@H](n4cnc5c4ncn4ccnc54)[C@H](O)[C@@H]3O)[C@@H](O)[C@H]2O)c1; experiment: fluorescence hydrolase assay, Km determination; type: biochemical, Homo sapiens
T1 construct: recombinant human His-tagged CD38 protein

CD38 (rhCD38) = molecular target: T2, CD38 (rhCD38) (Homo sapiens, UniProt P28907); experiment: tryptophan fluorescence quenching titration; type: binding
T2 construct: ectodomain of recombinant human CD38 (His-tagged)
T2 sequence (P28907 45-300): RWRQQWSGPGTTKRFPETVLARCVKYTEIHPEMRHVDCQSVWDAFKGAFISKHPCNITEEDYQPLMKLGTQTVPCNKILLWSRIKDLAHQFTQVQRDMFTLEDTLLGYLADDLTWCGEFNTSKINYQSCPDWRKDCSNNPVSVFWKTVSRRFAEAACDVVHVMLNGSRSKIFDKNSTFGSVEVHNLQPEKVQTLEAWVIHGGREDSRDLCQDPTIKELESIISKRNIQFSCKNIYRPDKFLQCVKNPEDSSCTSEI

Compound: CD38 (rhCD38) (Homo sapiens)
- Km [1]: 56.2 ± 8.9 x 10^−6 M

Compound: NC(=O)c1ccc[n+]([C@@H]2O[C@H](COP(=O)([O-])OP(=O)(O)OC[C@H]3O[C@@H](n4cnc5c(N)ncnc54)[C@H](O)[C@@H]3O)[C@@H](O)[C@H]2O)c1 [β-NAD]
- Kd (CD38 (rhCD38)): 28 ± 9.4 µM

Compound: Nc1nc2c(ncn2[C@@H]2O[C@@H]3COP(=O)(S)O[C@H]4[C@@H](O)[C@H](n5cnc6c(N)ncnc65)O[C@@H]4COP(=O)(S)O[C@@H]2[C@@H]3O)c(=O)[nH]1 (stereo partly drawn) [2′3′-cG^sA^sMP]
- Kd (CD38 (rhCD38); read-out: Kd): 46.3 ± 9.8 µM
